According to patent publication US7973055B2, “Crystalline forms of a biphenyl compound” (Theravance, Inc., priority 2006, dated 2011):
Where a name gives a salt, the structure may show the parent alone.

How the values were obtained:
[1] = Dynamic moisture sorption (DMS) assessment; format: physicochemical; conditions: for weight gain when exposed to up to 90% relative humidity / level of hygroscopicity: DMS; for weight gain when exposed to up to 90% relative humidity: up to 90% RH; for deliquescence: exposed to up to 90% relative humidity
Method: A dynamic moisture sorption (DMS) assessment (also known as a moisture sorption-desorption profile) was performed for samples of a crystalline hemiedisylate (prepared as described in Example 2) and a heminapadisylate (prepared as described in Example 5) salt using a VTI atmospheric microbalance, SGA-100 system (VTI Corp., Hialeah, Fla. 33016). A sample size of approximately 10 mg was used and the humidity was set at the ambient value at the start of the analysis. A typical DMS analysis consisted of three scans: ambient to 2% relative humidity (RH), 2% RH to 90% RH, 90% RH to 5% RH at a scan rate of 5% RH/step. The mass was measured every two minutes and the RH was changed stepwise to the next value (+/−5% RH) when the mass of the sample was stable to within 0.02% for 5 consecutive points.

[2] = 5° C./min
Method: Differential scanning calorimetry (DSC) was performed using a TA Instruments Model Q-10 module with a Thermal Analyst controller. Data were collected and analyzed using TA Instruments Thermal Solutions software. A sample of about 1 mg was accurately weighed into an aluminum pan with lid. The sample was evaluated using a linear heating ramp of 5° C./min from ambient temperature to approximately 300° C. The DSC cell was purged with dry nitrogen during use.

[3] = Solid state stability assessment (HPLC); conditions: about 1 month at 40° C. and 75% RH
Method: These stock solutions were diluted to 1 mg/mL in 10% ACN for injection onto the HPLC.

[4] = 0.2 mg/mL freebase equivalents in 10 mM citrate buffered normal saline, pH 4.5; one month at 40° C./75% RH
Method: A solution was prepared with 0.2 mg/mL freebase equivalents (using a crystalline heminapadisylate salt prepared as described in Example 5) in 10 mM citrate buffered normal saline, pH 4.5. Less than 0.5% degradation was observed after storage for one month at 40° C./75% RH.

Row | Compound | weight gain when exposed to up to 90% relative humidity [1] | no thermal decomposition below (DSC trace) [2] [°C] | other results
1 | CN(CCN1CCC(OC(=O)Nc2ccccc2-c2ccccc2)CC1)C(=O)c1cccc(C(=O)NCCNCc2ccc(O)cc2)c1 [crystalline diacetate salt] | less than 18% |  | 
2 | CN(CCN1CCC(OC(=O)Nc2ccccc2-c2ccccc2)CC1)C(=O)c1cccc(C(=O)NCCNCc2ccc(O)cc2)c1 [crystalline dipropionate salt] | less than 11% |  | 
3 | CN(CCN1CCC(OC(=O)Nc2ccccc2-c2ccccc2)CC1)C(=O)c1cccc(C(=O)NCCNCc2ccc(O)cc2)c1 [crystalline freebase (Form I), Crystalline Freebase Biphenyl-2-ylcarbamic Acid 1-[2-({3-[2-(4-Hydroxybenzylamino)ethylcarbamoyl]benzoyl}methylamino)ethyl]piperidin-4-yl Ester (Form I)] |  | ≥ 95 | 
4 | CN(CCN1CCC(OC(=O)Nc2ccccc2-c2ccccc2)CC1)C(=O)c1cccc(C(=O)NCCNCc2ccc(O)cc2)c1 [crystalline freebase (Form II), Crystalline Freebase Biphenyl-2-ylcarbamic Acid 1-[2-({3-[2-(4-Hydroxybenzylamino)ethylcarbamoyl]benzoyl}methylamino)ethyl]piperidin-4-yl Ester (Form II)] |  | ≥ 110 | 
5 | CN(CCN1CCC(OC(=O)Nc2ccccc2-c2ccccc2)CC1)C(=O)c1cccc(C(=O)NCCNCc2ccc(O)cc2)c1.CN(CCN1CCC(OC(=O)Nc2ccccc2-c2ccccc2)CC1)C(=O)c1cccc(C(=O)NCCNCc2ccc(O)cc2)c1.O=S(=O)(O)CCS(=O)(=O)O [crystalline hemiedisylate salt, Crystalline Hemiedisylate Salt of Biphenyl-2-ylcarbamic Acid 1-[2-({3-[2-(4-Hydroxybenzylamino)ethylcarbamoyl]benzoyl}methylamino)ethyl]piperidin-4-yl Ester] | less than 4% | ≥ 190 | level of hygroscopicity [1]: moderate and low; deliquescence [1]: not deliquescent
6 | CN(CCN1CCC(OC(=O)Nc2ccccc2-c2ccccc2)CC1)C(=O)c1cccc(C(=O)NCCNCc2ccc(O)cc2)c1.CN(CCN1CCC(OC(=O)Nc2ccccc2-c2ccccc2)CC1)C(=O)c1cccc(C(=O)NCCNCc2ccc(O)cc2)c1.O=S(=O)(O)c1cccc2c(S(=O)(=O)O)cccc12 [crystalline heminapadisylate salt, Crystalline Heminapadisylate Salt of Biphenyl-2-ylcarbamic Acid 1-[2-({3-[2-(4-Hydroxybenzylamino)ethylcarbamoyl]benzoyl}methylamino)ethyl]piperidin-4-yl Ester] | less than 2% | ≥ 220 | weight gain in the humidity range of 40-75% RH ([1]; 40-75% RH): 0.46%; level of hygroscopicity [1]: low; deliquescence [1]: not deliquescent; chemical degradation by HPLC after storage [3]: less than 0.5%; degradation of inhalation solution after storage [4]: Less than 0.5%
7 | CN(CCN1CCC(OC(=O)Nc2ccccc2-c2ccccc2)CC1)C(=O)c1cccc(C(=O)NCCNCc2ccc(O)cc2)c1 [crystalline monooxalate salt] | less than 14% |  | 
